# Measured values taken from patent US7795444B2, “Human protein tyrosine phosphatase inhibitors and methods of use” (Warner Chilcott Company, priority 2006, dated 2010).
# Key:
# [1] = target: HPTPβ (Homo sapiens, UniProt P23467); test: HPTPβ inhibition, IC50 (Table A); assay type: biochemical
# [2] = target: T1, PTP1B (Homo sapiens, UniProt P18031); test: PTP1B inhibition, IC50 (Table A); assay type: biochemical
# T1 sequence (P18031 1-435): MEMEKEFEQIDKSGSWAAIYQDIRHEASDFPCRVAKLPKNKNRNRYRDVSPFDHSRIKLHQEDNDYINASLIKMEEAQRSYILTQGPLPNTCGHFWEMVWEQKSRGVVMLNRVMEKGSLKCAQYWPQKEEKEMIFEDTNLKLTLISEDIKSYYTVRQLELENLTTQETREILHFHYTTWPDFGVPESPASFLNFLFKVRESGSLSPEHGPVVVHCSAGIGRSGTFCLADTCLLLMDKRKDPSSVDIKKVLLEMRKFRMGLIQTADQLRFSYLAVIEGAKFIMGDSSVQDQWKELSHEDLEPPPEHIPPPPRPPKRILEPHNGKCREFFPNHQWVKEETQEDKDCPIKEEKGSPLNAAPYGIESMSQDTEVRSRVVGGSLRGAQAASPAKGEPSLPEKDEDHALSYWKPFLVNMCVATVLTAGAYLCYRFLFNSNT
# Sequence of HPTPβ (P23467 23-1997): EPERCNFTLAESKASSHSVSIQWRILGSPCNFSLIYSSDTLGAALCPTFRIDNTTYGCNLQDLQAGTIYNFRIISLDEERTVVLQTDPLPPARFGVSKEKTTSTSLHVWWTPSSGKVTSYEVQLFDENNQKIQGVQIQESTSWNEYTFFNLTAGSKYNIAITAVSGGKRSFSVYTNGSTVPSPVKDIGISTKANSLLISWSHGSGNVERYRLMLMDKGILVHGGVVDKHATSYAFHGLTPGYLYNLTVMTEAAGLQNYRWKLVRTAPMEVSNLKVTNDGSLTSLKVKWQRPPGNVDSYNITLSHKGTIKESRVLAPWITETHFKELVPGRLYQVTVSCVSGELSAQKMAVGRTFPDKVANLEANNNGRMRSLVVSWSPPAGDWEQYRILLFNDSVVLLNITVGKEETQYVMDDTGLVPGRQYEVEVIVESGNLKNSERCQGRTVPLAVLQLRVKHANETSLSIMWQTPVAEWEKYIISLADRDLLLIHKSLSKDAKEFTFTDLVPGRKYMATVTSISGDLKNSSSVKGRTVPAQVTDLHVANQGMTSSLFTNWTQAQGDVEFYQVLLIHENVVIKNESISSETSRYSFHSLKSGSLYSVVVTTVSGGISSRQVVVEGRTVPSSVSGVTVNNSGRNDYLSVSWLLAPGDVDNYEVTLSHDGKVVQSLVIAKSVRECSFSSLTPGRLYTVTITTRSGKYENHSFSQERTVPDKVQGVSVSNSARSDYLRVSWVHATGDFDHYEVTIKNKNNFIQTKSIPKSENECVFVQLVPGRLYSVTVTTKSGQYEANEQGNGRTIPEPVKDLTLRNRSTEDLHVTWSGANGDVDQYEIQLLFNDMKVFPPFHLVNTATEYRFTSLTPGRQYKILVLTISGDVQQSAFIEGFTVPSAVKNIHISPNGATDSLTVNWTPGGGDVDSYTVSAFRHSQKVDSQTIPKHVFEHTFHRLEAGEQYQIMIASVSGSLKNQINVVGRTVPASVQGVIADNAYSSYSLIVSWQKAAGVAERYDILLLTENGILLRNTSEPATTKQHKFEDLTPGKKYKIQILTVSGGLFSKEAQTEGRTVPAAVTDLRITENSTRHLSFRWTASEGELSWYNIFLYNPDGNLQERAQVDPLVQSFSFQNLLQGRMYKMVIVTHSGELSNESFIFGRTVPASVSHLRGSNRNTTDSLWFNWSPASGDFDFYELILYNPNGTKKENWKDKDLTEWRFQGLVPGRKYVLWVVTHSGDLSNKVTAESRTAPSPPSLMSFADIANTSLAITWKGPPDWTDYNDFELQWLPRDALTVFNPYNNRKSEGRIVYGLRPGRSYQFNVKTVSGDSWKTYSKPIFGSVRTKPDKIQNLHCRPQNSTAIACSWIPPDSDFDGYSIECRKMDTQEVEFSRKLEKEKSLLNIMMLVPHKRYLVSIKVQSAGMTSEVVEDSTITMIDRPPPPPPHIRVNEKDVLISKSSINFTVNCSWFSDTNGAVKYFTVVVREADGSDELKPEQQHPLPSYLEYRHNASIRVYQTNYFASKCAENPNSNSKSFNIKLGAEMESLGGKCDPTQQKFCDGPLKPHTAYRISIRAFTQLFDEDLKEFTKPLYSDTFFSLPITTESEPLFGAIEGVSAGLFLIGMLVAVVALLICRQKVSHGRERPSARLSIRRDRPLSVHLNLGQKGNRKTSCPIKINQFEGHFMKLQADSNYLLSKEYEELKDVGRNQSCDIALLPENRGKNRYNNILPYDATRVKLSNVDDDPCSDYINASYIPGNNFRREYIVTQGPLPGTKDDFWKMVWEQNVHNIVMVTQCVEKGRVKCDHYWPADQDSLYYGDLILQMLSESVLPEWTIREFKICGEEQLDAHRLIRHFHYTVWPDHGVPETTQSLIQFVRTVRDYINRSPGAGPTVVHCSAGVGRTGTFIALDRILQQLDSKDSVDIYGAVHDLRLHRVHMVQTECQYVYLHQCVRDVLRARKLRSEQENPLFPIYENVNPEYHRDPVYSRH
Compound,IC50 [1] [nM],IC50 [2] [nM]
"CCc1csc([C@H](Cc2ccc(NS(=O)(=O)O)cc2)NC(=O)Cc2cccc(F)c2F)n1 [(S)-4-(2-(2-(2,3-Difluorophenyl)acetamido)-2-(4-ethylthiazol-2-yl)ethyl)phenyl-sulfamic acid]",28,5360
"CCc1csc([C@H](Cc2ccc(NS(=O)(=O)O)cc2)NC(=O)Cc2cccc(OC)c2OC)n1 [(S)-4-(2-(2-(2,3-Dimethoxyphenyl)acetamido)-2-(4-ethylthiazol-2-yl)ethyl)-phenylsulfamic acid]",37,25400
CCc1csc([C@H](Cc2ccc(NS(=O)(=O)O)cc2)NC(=O)Cc2ccccc2Cl)n1 [(S)-4-(2-(2-(2-Chlorophenyl)acetamido)-2-(4-ethylthiazol-2-yl)ethyl)phenyl-sulfamic acid],56,22800
"CCc1csc([C@H](Cc2ccc(NS(=O)(=O)O)cc2)NC(=O)Cc2ccc(F)c(F)c2)n1 [(S)-4-(2-(2-(3,4-Difluorophenyl)acetamido)-2-(4-ethylthiazol-2-yl)ethyl)phenyl-sulfamic acid]",75,23900
"CCc1csc([C@H](Cc2ccc(NS(=O)(=O)O)cc2)NC(=O)Cc2ccc(OC)c(OC)c2)n1 [(S)-4-(2-(2-(3,4-Dimethoxyphenyl)acetamido)-2-(4-ethylthiazol-2-yl)ethyl)-phenylsulfamic acid]",28,15500
CCc1csc([C@H](Cc2ccc(NS(=O)(=O)O)cc2)NC(=O)Cc2cccc(Cl)c2)n1 [(S)-4-(2-(2-(3-Chlorophenyl)acetamido)-2-(4-ethylthiazol-2-yl)ethyl)phenyl-sulfamic acid],33,13600
CCc1csc([C@H](Cc2ccc(NS(=O)(=O)O)cc2)NC(=O)Cc2cccc(O)c2)n1 [(S)-4-(2-(4-Ethylthiazol-2-yl)-2-(2-(3-hydroxyphenyl)acetamido)ethyl)phenyl-sulfamic acid],40,6570
"CCc1csc([C@H](Cc2ccc(NS(=O)(=O)O)cc2)NC(=O)c2ccc3c(c2)OCO3)n1 [(S)-4-[2-(Benzo[d][1,3]dioxole-5-carboxamido)-2-(4-ethylthiazol-2-yl)ethyl]phenylsulfamic acid]",42,19000
CCc1csc([C@H](Cc2ccc(NS(=O)(=O)O)cc2)NC(=O)Cc2ccccc2)n1 [(S)-{4-[2-(4-Ethylthiazol-2-yl)-2-(phenylacetylamido)ethyl]-phenyl}sulfamic acid],50,22900
(S)-4-(2-(4-Ethylthiazol-2-yl)-2-(2-(2-methoxyphenyl)acetamido)ethyl)phenyl-sulfamic acid,14,11700

# Now those with a lower IC50 [1], led by results:
IC50 [1] [nM],IC50 [2] [nM],Compound
0.2,15300,CCc1csc([C@H](Cc2ccc(NS(=O)(=O)O)cc2)NC(=O)CCc2cccc(Cl)c2)n1 [(S)-4-(2-(3-(3-Chlorophenyl)propanamido)-2-(4-ethylthiazol-2-yl)ethyl)phenyl-sulfamic acid]
12,5360,CCc1csc([C@H](Cc2ccc(NS(=O)(=O)O)cc2)NC(=O)Cc2ccccc2F)n1 [(S)-4-(2-(4-Ethylthiazol-2-yl)-2-(2-(2-fluorophenyl)acetamido)ethyl)phenyl-sulfamic acid]
0.3,2850,CCc1csc([C@H](Cc2ccc(NS(=O)(=O)O)cc2)NC(=O)Cc2cccc(F)c2)n1 [(S)-4-(2-(4-Ethylthiazol-2-yl)-2-(2-(3-fluorophenyl)acetamido)ethyl)phenyl-sulfamic acid]
8,4050,CCc1csc([C@H](Cc2ccc(NS(=O)(=O)O)cc2)NC(=O)Cc2cccc(OC)c2)n1 [(S)-4-(2-(4-Ethylthiazol-2-yl)-2-(2-(3-methoxyphenyl)acetamido)ethyl)phenyl-sulfamic acid]
3,16900,CCc1csc([C@H](Cc2ccc(NS(=O)(=O)O)cc2)NC(=O)CCc2ccccc2OC)n1 [(S)-4-(2-(4-Ethylthiazol-2-yl)-2-(3-(2-methoxyphenyl)propanamido)ethyl)phenyl-sulfamic acid]
10,20600,CCc1csc([C@H](Cc2ccc(NS(=O)(=O)O)cc2)NC(=O)CCc2cccc(OC)c2)n1 [(S)-4-(2-(4-Ethylthiazol-2-yl)-2-(3-(3-methoxyphenyl)propanamido)ethyl)phenyl-sulfamic acid]
6,16000,CCc1csc([C@H](Cc2ccc(NS(=O)(=O)O)cc2)NC(=O)CCc2ccc(OC)cc2)n1 [(S)-4-(2-(4-Ethylthiazol-2-yl)-2-(3-(4-methoxyphenyl)propanamido)ethyl)phenyl-sulfamic acid]
2,10400,CCc1csc([C@H](Cc2ccc(NS(=O)(=O)O)cc2)NC(=O)CCc2ccccc2)n1 [(S)-4-(2-(4-Ethylthiazol-2-yl)-2-(3-phenylpropanamido)ethyl)phenylsulfamic acid]
2,254,"CCc1csc([C@H](Cc2ccc(NS(=O)(=O)O)cc2)NC(=O)Cn2cc(C)c(=O)[nH]c2=O)n1 [(S)-4-{2-(4-Ethylthiazol-2-yl)-2-[2-(5-methyl-2,4-dioxo-3,4-dihydropyrimidin-1(2H)-yl)acetamido]ethyl}phenylsulfamic acid]"
2,530,"CCc1csc([C@H](Cc2ccc(NS(=O)(=O)O)cc2)NC(=O)CN2CCN(CC)C(=O)C2=O)n1 [(S)-4-{2-[2-(4-Ethyl-2,3-dioxopiperazin-1-yl)acetamido]-2-(4-ethylthiazol-2-yl)ethyl}phenylsulfamic acid]"
